Test results: article PMC11284787, “Ligand-Directed Labeling of the Adenosine A1 Receptor in Living Cells” (Journal of Medicinal Chemistry, 2024)

What was measured:
NL-hA2AAR = target: T1, NL-hA2AAR (Homo sapiens, UniProt P29274); assay: NanoBRET saturation ligand-binding assay, NL-hA2AAR; conditions: HEK293T cells transiently expressing NL-hA2AAR, mean ± SEM; read-out: affinity values pKD, NL-hA2AAR (converted)
T1 construct: expressed in transfected cells; host or cells: HEK293T, transient transfection (FuGENE)
T1 sequence (P29274 whole entry): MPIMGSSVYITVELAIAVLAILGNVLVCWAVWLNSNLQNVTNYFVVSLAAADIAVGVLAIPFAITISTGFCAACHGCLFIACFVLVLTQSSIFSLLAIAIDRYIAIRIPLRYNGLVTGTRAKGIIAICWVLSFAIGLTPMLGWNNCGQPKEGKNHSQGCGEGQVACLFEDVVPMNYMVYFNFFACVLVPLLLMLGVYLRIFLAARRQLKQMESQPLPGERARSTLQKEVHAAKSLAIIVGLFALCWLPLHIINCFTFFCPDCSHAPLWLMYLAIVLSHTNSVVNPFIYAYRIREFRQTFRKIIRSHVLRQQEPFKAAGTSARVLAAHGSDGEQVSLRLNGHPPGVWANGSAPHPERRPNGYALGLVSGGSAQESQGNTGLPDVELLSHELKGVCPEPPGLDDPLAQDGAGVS
Procedure: Probes 11 and 12 were further evaluated for their ability to bind the other three adenosine receptor subtypes (NL-A2AAR, NL-A2BAR, and NL-A3AR), and their ligand-binding properties were quantified in the NanoBRET saturation and inhibition binding assays, respectively (Table 1 and Figure 4). […]
plates (Nunc Lab-Tek, Thermo Fischer Scientific), pre-coated with Poly-D-Lysine, at 20,000 cells per well in DMEM/10% FCS. 24 h post seeding, cells were transiently transfected with human SNAP-A1. Transient transfections were carried out following manufacturer’s protocol: used FuGENE (Promega) HD at 3:1 ratio of reagent to cDNA with a total of 300 ng cDNA per well. Transfection solutions were made up in Gibco Opti-MEM (Thermo Fischer Scientific), incubated at RT for 5 min and added as 11 µL per well. Cells were incubated for additional 24 h at 37 OC, 5% CO2. Transient Transfection of NanoLuc-tagged human A 2AAR in HEK293T cell line was carried out as follows: 72 h prior to the experiment cells were removed from a confluent T75 flask and centrifuged. The pellet of cells was resuspended in 10 mL of fresh complete DMEM. […]
37 °C for kinetic binding experiments. Emissions were read at 420 nm (80 nm bandpass; […]

NL-hA1AR = target: T2, NL-hA1AR (Homo sapiens, UniProt P30542); assay: NanoBRET competition ligand-binding assay (CA200645 tracer), NL-hA1AR
T2 construct: expressed in transfected cells
T2 sequence (P30542 1-326): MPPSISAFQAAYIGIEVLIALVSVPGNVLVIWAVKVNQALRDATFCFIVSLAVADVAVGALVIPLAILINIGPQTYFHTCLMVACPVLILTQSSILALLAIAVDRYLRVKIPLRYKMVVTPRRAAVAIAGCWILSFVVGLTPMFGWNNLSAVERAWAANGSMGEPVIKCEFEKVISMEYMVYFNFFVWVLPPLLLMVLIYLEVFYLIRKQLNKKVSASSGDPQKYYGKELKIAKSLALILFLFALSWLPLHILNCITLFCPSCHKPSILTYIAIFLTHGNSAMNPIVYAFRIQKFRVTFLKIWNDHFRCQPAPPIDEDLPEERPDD

| SMILES | Kd (NL-hA2AAR) | Ki (NL-hA1AR; CA200645 (25 nM) tracer, HEK293T cells, mean ± SEM, read-out: affinity values pKi, NL-hA1AR (converted)) | greater affinity for NL-A1AR over NL-A2AAR (competition binding) (NL-hA1AR; selectivity from pKi values) | greater affinity for NL-A1AR over NL-A2BAR (competition binding) (NL-hA1AR; selectivity from pKi values) | greater affinity for NL-A1AR over NL-A3AR (competition binding) (NL-hA1AR; selectivity from pKi values) |
| --- | --- | --- | --- | --- | --- |
| CCCCn1c(=O)c2[nH]c(C34CCC(C(=O)NCCNC(=O)CCNC(=O)c5ccc(OC(=O)CCCCC[N+]6=C(/C=C/C=C/C=C7/N(C)c8ccc(S(=O)(=O)O)cc8C7(C)C)C(C)(C)c7cc(S(=O)(=O)[O-])ccc76)c(F)c5)(CC3)CC4)nc2n(CCCC)c1=O [Compound 11, 1-(6-(4-((3-((2-(4-(1,3-Dibutyl-2,6-dioxo-2,3,6,7-tetrahydro-1H-purin-8-yl)bicyclo[2.2.2]octane-1-carboxamido)ethyl)amino)-3-oxopropyl)carbamoyl)-2-fluorophenoxy)-6-oxohexyl)-3,3-dimethyl-2-((1E,3E)-5-((E)-1,3,3-trimethyl-5-sulfoindolin-2-ylidene)penta-1,3-dien-1-yl)-3H-indol-1-ium-5-sulfonate] | 0.245 µM | – | – | – | – |
| CCCCn1c(=O)c2[nH]c(C34CCC(C(=O)NCCNC(=O)CCNC(=O)c5ccc(OC(=O)CCC(=O)NCCOCCOCCNC(=O)O[C@H]6CC/C=C/CCC6)c(F)c5)(CC3)CC4)nc2n(CCCC)c1=O [Compound 12, 4-((3-((2-(4-(1,3-Dibutyl-2,6-dioxo-2,3,6,7-tetrahydro-1H-purin-8-yl)bicyclo[2.2.2]octane-1-carboxamido)ethyl)amino)-3-oxopropyl)carbamoyl)-2-fluorophenyl (R,E)-1-(Cyclooct-4-en-1-yloxy)-1,12-dioxo-5,8-dioxa-2,11-diazapentadecan-15-oate] | – | 0.0135 µM | 104 fold | 61 fold | 857 fold |
